In test [1] the test system is adult R. sanguineus ticks. Kind of test: Contact activity against adult Rhipicephalus sanguineus (Example 5). The conditions noted are these: coated vials, 48 hours post-treatment, read-out: EC50 (contact activity, percentage mortality). How it is done: Compounds of formulae (I), (Ia) and/or (Ib) formulated in 100% DMSO are diluted in a solution containing acetone and Triton X-100 (0.02%). The resulting formulation is used to coat the inner walls of glass scintillation vials and the filter paper covering the cap of the vial. Once dried, ten adult R. sanguineus ticks are added to the vials. The vials are incubated at 24° C., 95% relative humidity, and 12 hours of light/12 hours of dark until evaluation. Ticks are visually evaluated for mortality at 48 hours post-treatment. Compound efficacy at a given dose is expressed as percentage mortality. A dose response series is implemented to determine EC50 values.

Test [2] deals with adult Ctenocephalides felis fleas. Kind of test: Contact activity against adult Ctenocephalides felis (Example 4). The following applies: adult C. felis, coated pipe cleaner in vial, 72 hours post-treatment, read-out: EC50 (contact activity, percentage mortality). The protocol: Compounds of formulae (I), (Ia) and/or (Ib) dissolved in 100% DMSO are diluted in acetone to a desired concentration. The resulting formulation is used to coat the fibers of a 0.5-inch-long piece of pipe cleaner placed in a glass scintillation vial. The vial is capped with a rubber gasket and filter paper insert. After the acetone has evaporated, ten adult Ctenocephalides felis fleas are added to each vial. The vials are then incubated at 22° C., 80% relative humidity, and 12 hours of light/12 hours of dark until a visual evaluation for mortality is performed at 72 hours post-treatment. Compound efficacy at a given dose is expressed as percentage mortality and adjusted to remove background mortality observed in control vials containing DMSO only. A dose response series of treated vials is implemented to determine EC50 values.

The subject of a further test is A. aegypti L1 larvae. Kind of test: Activity against larvae of Aedes aegypti (Example 3). The following applies: 48 h at 27° C., read-out: EC50 (percentage of mortality, larvae). How it is done:
Eight A. aegypti L1 larvae in a total volume of 64 μL water are added to 384-well microplates containing compounds of formulae (I), (Ia) and/or (Ib) formulated in 100% DMSO. The plates are incubated for 48 h at 27° C. Individual well images are acquired and analyzed using a pipeline to quantitatively assess the amount of larvae biomass accumulating at the bottom of the well. The efficacy of a compound at a given dose is expressed as “percentage of mortality” and determined by comparison to average biomass descriptors of positive and negative control wells containing 1.0 μM Fipronil or DMSO only, respectively. Dose response assay are conducted to determine an EC50 value.

The test system of test [3] is adult C. felis fleas. The experiment in a line: Ingestion activity against adult Ctenocephalides felis, membrane feeding, motility (Example 6). The conditions noted are these: 48 h, bovine blood via artificial membrane, 48h post treatment, read-out: EC50 (ingestion activity, % motility reduction). The protocol:
Compounds of formulae (I), (Ia) and/or (Ib) dissolved in 100% DMSO are added to bovine blood and offered via an artificial membrane feeding system to adult C. felis fleas. The motility of fleas is then visually inspected 48h post treatment. Efficacy is expressed in % motility reduction compared to controls containing blood treated with DMSO only. A dose response series is implemented to determine EC50 values.

The next test concerns Plutella xylostella. Kind of test: Insecticidal test on Plutella xylostella (Example 15). It is filed as in vivo. The following applies: 144 h, Chinese cabbage seedling dip, 6 days after dip treatment, read-out: activity level (corrected mortality rate). How it is done:
The compounds of formula (I), (Ia) and/or (Ib) of the present invention or salts thereof are separately dispersed in water and diluted to 500 ppm and 50 ppm. Ten adults of Plutella xylostella are released onto Chinese cabbage seedlings and allowed to lay eggs thereon. 2 days after the release of the adults, the seedling is dipped in the dispersion for about 30 seconds. After air dried, the seedling is kept in a room at 25° C. 6 days after the dip treatment, the numbers of the dead and alive insects are counted. The corrected mortality rate is calculated according to the following formula and the insecticidal activity is evaluated according to the following criteria.

Another test has as its system Myzus persicae. Kind of test: Insecticidal test on Myzus persicae (Example 17). It is filed as in vivo. The conditions noted are these: 144 h, foliar application on Chinese cabbage, 6 days after application, read-out: control efficacy level (control rate). An excerpt: The compounds of formula (I), (Ia) and/or (Ib) of the present invention or salts thereof are separately dispersed in water and diluted to 500 ppm and 50 ppm. Chinese cabbage plants are planted in plastic pots (diameter: 8 cm, height: 8 cm). Aphids (Myzus persicae) are propagated on the plants and then the number of surviving aphids is counted. The dispersion is applied to the foliage of the potted plants. After the plants are air dried, these are kept in a greenhouse. 6 days after the application, the number of the alive insects is counted on the plants. The control rate is calculated according to the following formula and the control efficacy is evaluated according to the following criteria. [formula] • Ta: the number of alive insects before the foliar application in a treated plot • T: the number of alive insects after the foliar application in a treated plot • Ca: the number of alive insects before the foliar application in an untreated plot • C: the number of alive insects after the foliar application in an untreated plot • A: the control rate is 100% • B: the control rate is 90 to 99% • C: the control rate is 80 to 89% • D: the control rate is 50 to 79%

For test [4], the system named is adult C. felis fleas. The experiment in a line: Ingestion activity against adult Ctenocephalides felis, membrane feeding, alternative method (Examples 7 and 13). The conditions noted are these: Ctenocephalides felis. How it is done:
Selected compounds of formula (I), (Ia) and (Ib) and compound “125” of WO 2021/033141 dissolved in 100% DMSO are diluted in bovine blood with sodium heparin anti-coagulant. The resulting formulation is offered via an artificial membrane feeding system to approximately 15 adult C. felis fleas previously dispensed into 24-well plates. The plates are then incubated in a double-chambered device. Visual evaluation for mortality is performed at 48 hours post-treatment. Compound efficacy at a given dose is expressed as percentage mortality and determined by normalization to positive and negative controls. A dose response series is implemented to determine EC50 values.
Compounds of formulae (I), (Ia) and/or (Ib) dissolved in 100% DMSO are diluted in bovine blood with sodium heparin anti-coagulant. The resulting formulation is offered via an artificial membrane feeding system to approximately 15 adult C. felis fleas previously dispensed into 24-well plates. The plates are then incubated in a double-chambered device. Visual evaluation for mortality is performed at 48 hours post-treatment. Compound efficacy at a given dose is expressed as percentage mortality and determined by normalization to positive and negative controls. A dose response series is implemented to determine EC50 values.

The next test concerns Laodelphax striatellus. The experiment in a line: Insecticidal test on Laodelphax striatellus (Example 16). Type of test: in vivo. The conditions noted are these: 192 h, rice seedling dip, 3rd-instar nymphs, 8 days after inoculation, read-out: activity level (corrected mortality rate). The protocol: The compounds of formula (I), (Ia) and/or (Ib) of the present invention or salts thereof are separately dispersed in water and diluted to 500 ppm and 50 ppm. Rice plant seedlings are dipped in the dispersion for about 30 seconds. After air dried, the seedlings are put into a separate glass test tube and inoculated with ten 3rd-instar nymphs of Laodelphax striatellus and then the glass test tube is kept in a room at 25° C. 8 days after the inoculation, the numbers of the dead and alive insects are counted. The corrected mortality rate is calculated according to the following formula and the insecticidal activity is evaluated according to the following criteria.

A further test deals with Spodoptera litura. Kind of test: Insecticidal test on Spodoptera litura (Example 14). It is filed as in vivo. The conditions noted are these: foliar, 192 h, cabbage leaf dip, 2nd-instar larvae, 8 days after inoculation, read-out: activity level (corrected mortality rate). The protocol: The compounds of formula (I), (Ia) and/or (Ib) of the present invention or salts thereof are separately dispersed in water and diluted to 500 ppm and 50 ppm. Cabbage leaves are dipped in the dispersion for about 30 seconds. After air dried, the leaves are placed in a plastic Petri dish with a diameter of 9 cm and inoculated with ten 2nd-instar larvae of Spodoptera litura, after which the dish is closed and then allowed to stand in a room at 25° C. 8 days after the inoculation, the numbers of the dead and alive insects are counted. The corrected mortality rate is calculated according to the following formula and the insecticidal activity is evaluated according to the following criteria.
[formula] [formula] • A: the corrected mortality rate is 100% • B: the corrected mortality rate is 90 to 99% • C: the corrected mortality rate is 80 to 89% • D: the corrected mortality rate is 50 to 79%

Where [5] appears, read: adult C. felis, bovine blood with sodium heparin, membrane feeding, 48 hours post-treatment, read-out: EC50 (ingestion activity, percentage mortality, alternative method).
[6] abbreviates: alternative method according to Example 7, mortality at 48 hours post-treatment, read-out: C. felis membrane feeding (ingestion/blood feeding) activity EC50.

With `CCS(=N)(=O)c1cc(-c2ccc(C3CC3)cc2)cnc1-c1nc2cc(C(F)(F)C(F)(F)F)cnc2n1C` (stereo not drawn) [Compound 11], the EC50 in test [1] is 10000 to 100000 nM; in [2] it was below 10000 nM; in the test with A. aegypti L1 larvae, below 40 nM; in the test with adult C. felis fleas [3] it was below 1000 nM; with adult C. felis fleas [4] (setting [5]), below 1000 nM; in the test on adult C. felis fleas [4] (setting [6]), 816 nM. Further, the mortality at 500 ppm in the test with Plutella xylostella, with Laodelphax striatellus and in the test on Spodoptera litura was 100% in each case. Also, in the test on Myzus persicae, the pest or weed control at 500 ppm was 100%.

With `CCS(=N)(=O)c1cc(-c2ccc(C3(F)CC3)cc2)cnc1-c1nc2cc(C(F)(F)C(F)(F)F)nnc2n1C` (stereo not drawn) [Compound 14], the EC50 in [1] is 10000 to 100000 nM; in test [2], below 10000 nM; in the test with A. aegypti L1 larvae, below 40 nM; in the test on adult C. felis fleas [3], below 1000 nM; in the test with adult C. felis fleas [4] (setting [5]), below 1000 nM; in the test with adult C. felis fleas [4] (setting [6]), 195 nM. Besides, the mortality at 500 ppm in the test with Plutella xylostella, in the test on Laodelphax striatellus and with Spodoptera litura was 100% throughout. Also, in the test on Myzus persicae, the pest or weed control at 500 ppm was found to be 100%.

Regarding `CCS(=N)(=O)c1cc(-c2cc(C3CC3)no2)cnc1-c1nc2cc(C(F)(F)C(F)(F)F)cnc2n1C` (stereo not drawn) [Compound 19], the EC50 in test [1] is 10000 to 100000 nM; in test [2], below 10000 nM; in the test with adult C. felis fleas [3] it was below 1000 nM; in the test on adult C. felis fleas [4] (setting [5]), 1000 to 10000 nM. The mortality at 500 ppm in the test on Plutella xylostella, in the test on Laodelphax striatellus and in the test with Spodoptera litura was 100% throughout. In the test with Myzus persicae, the pest or weed control at 500 ppm stood at 100%.

In the case of `CCS(=N)(=O)c1cc(-c2cc(C3CC3)on2)cnc1-c1nc2cc(C(F)(F)C(F)(F)F)cnc2n1C` (stereo not drawn) [Compound 24], the EC50 is 10000 to 100000 nM in test [1]; below 10000 nM in test [2]; below 1000 nM with adult C. felis fleas [3]; below 1000 nM with adult C. felis fleas [4] (setting [5]); 839 nM in the test with adult C. felis fleas [4] (setting [6]). The mortality at 50 ppm in the test with Plutella xylostella and in the test on Spodoptera litura (50 ppm) was 100% in each case. The mortality at 500 ppm in the test with Plutella xylostella and with Laodelphax striatellus was 100% in each case. Also, in the test on Myzus persicae, the pest or weed control at 50 ppm stood at 100%. For the same compound, in the test with Myzus persicae, the pest or weed control at 500 ppm was 100%.

On to `CCS(=N)(=O)c1cc(-n2cc(C3CC3)cn2)cnc1-c1nc2cc(C(F)(F)C(F)(F)F)cnc2n1C` (stereo not drawn) [Compound 27], for which the EC50 is below 10000 nM in [1]; below 10000 nM in test [2]; below 1000 nM in the test with adult C. felis fleas [3]; below 1000 nM in the test with adult C. felis fleas [4] (setting [5]); 177 nM with adult C. felis fleas [4] (setting [6]). Besides, the mortality at 500 ppm in the test on Plutella xylostella, in the test with Laodelphax striatellus and in the test with Spodoptera litura was 100% each time. For the same compound, in the test on Myzus persicae, the pest or weed control at 500 ppm was 100%.

`CCS(=N)(=O)c1cc(-c2cnn(C3CC3)c2)cnc1-c1nc2cc(C(F)(F)C(F)(F)F)nnc2n1C` (stereo not drawn) [Compound 30]: the EC50 is 10000 to 100000 nM in test [1]; below 10000 nM in test [2]; below 1000 nM in the test with adult C. felis fleas [3]; below 1000 nM in the test with adult C. felis fleas [4] (setting [5]); 519 nM in the test on adult C. felis fleas [4] (setting [6]). The mortality at 500 ppm with Plutella xylostella, in the test with Laodelphax striatellus and with Spodoptera litura was 100% throughout. Also, the pest or weed control at 500 ppm with Myzus persicae turned out to be 100%.

Take `CCS(=N)(=O)c1cc(-c2noc(C3(C(F)(F)F)CC3)n2)cnc1-c1nc2cc(C(F)(F)C(F)(F)F)nnc2n1C` (stereo not drawn) [Compound 31]: the EC50 in test [1] is 10000 to 100000 nM; in test [2], below 10000 nM; in the test on A. aegypti L1 larvae, below 40 nM; with adult C. felis fleas [3], below 1000 nM; in the test on adult C. felis fleas [4] (setting [5]), below 1000 nM; with adult C. felis fleas [4] (setting [6]) it was 78 nM. Besides, the mortality at 50 ppm in the test with Plutella xylostella and in the test with Laodelphax striatellus (50 ppm) was 100% throughout. The pest or weed control at 50 ppm in the test with Myzus persicae stood at 100%.

Source of the values: patent US20240336615A1, “CYCLOPROPYL-(HETERO)ARYL-SUBSTITUTED ETHYL-SULFOXIME-PYRIDINE DERIVATIVES” (Boehringer Ingelheim Vetmedica GmbH, priority 2023, published 2024).
